Measured values: the NIST ThermoML archive (doi:10.1021/je050305z)

Conditions: Gas, Hot wire method

COC [dimethyl ether]
Conditions	thermal conductivity [W/m/K]
266.62 K, 148.1 kPa	0.01348
267.77 K, 148.1 kPa	0.01359
268.94 K, 148.1 kPa	0.01363
276.2 K, 155.8 kPa	0.01468
276.2 K, 207.5 kPa	0.01475
277.09 K, 207.5 kPa	0.01483
277.12 K, 155.8 kPa	0.01476
278.14 K, 155.8 kPa	0.01482
278.17 K, 207.5 kPa	0.01489
285.91 K, 253.2 kPa	0.01594
286.05 K, 144.6 kPa	0.01592
286.67 K, 253.2 kPa	0.016
286.89 K, 144.6 kPa	0.01605
287.68 K, 253.2 kPa	0.01614
287.99 K, 144.6 kPa	0.01606
295.96 K, 253.2 kPa	0.01725
296.02 K, 352.9 kPa	0.01726
296.03 K, 154.5 kPa	0.01715
296.69 K, 352.9 kPa	0.01736
296.76 K, 253.2 kPa	0.01733
296.8 K, 154.5 kPa	0.01728
297.39 K, 352.9 kPa	0.0174
297.64 K, 253.2 kPa	0.01739
297.76 K, 154.5 kPa	0.01734
305.64 K, 155.2 kPa	0.01827
305.64 K, 502.4 kPa	0.01848
305.8 K, 352.8 kPa	0.01842
306.69 K, 155.2 kPa	0.01839
306.69 K, 502.4 kPa	0.01861
306.8 K, 352.8 kPa	0.01854
307.53 K, 155.2 kPa	0.01852
307.53 K, 502.4 kPa	0.01872
307.82 K, 352.8 kPa	0.01861
315.68 K, 496.3 kPa	0.01958
315.77 K, 348.9 kPa	0.01952
316.05 K, 153.9 kPa	0.01955
316.35 K, 700.4 kPa	0.02006
316.55 K, 496.3 kPa	0.01971
316.56 K, 700.4 kPa	0.01992
316.75 K, 348.9 kPa	0.01967
317.06 K, 153.9 kPa	0.01957
317.2 K, 700.4 kPa	0.01999
317.63 K, 496.3 kPa	0.01983
317.81 K, 348.9 kPa	0.01977
318.26 K, 153.9 kPa	0.01971
325.16 K, 1120.2 kPa	0.02135
325.31 K, 883.7 kPa	0.02119
325.41 K, 701.6 kPa	0.02104
325.53 K, 500.8 kPa	0.02091
325.64 K, 348 kPa	0.0208
325.83 K, 151.5 kPa	0.02082
325.88 K, 1120.2 kPa	0.02135
326.11 K, 883.7 kPa	0.02133
326.2 K, 701.6 kPa	0.02113
326.36 K, 500.8 kPa	0.021
326.53 K, 348 kPa	0.02093
326.73 K, 1120.2 kPa	0.02156
326.79 K, 151.5 kPa	0.02087
326.99 K, 883.7 kPa	0.02145
327.16 K, 701.6 kPa	0.02125
327.38 K, 500.8 kPa	0.02116
327.53 K, 348 kPa	0.02098
327.88 K, 151.5 kPa	0.02094
335.18 K, 1196.9 kPa	0.02256
335.35 K, 898.7 kPa	0.02238
335.43 K, 705.2 kPa	0.02212
335.48 K, 353.4 kPa	0.02197
335.54 K, 505.2 kPa	0.02204
335.66 K, 152.2 kPa	0.02198
335.88 K, 1196.9 kPa	0.02272
336.11 K, 898.7 kPa	0.02244
336.23 K, 705.2 kPa	0.02226
336.32 K, 353.4 kPa	0.02209
336.37 K, 505.2 kPa	0.02217
336.45 K, 1196.9 kPa	0.0228
336.55 K, 152.2 kPa	0.02211
336.74 K, 898.7 kPa	0.0225
336.91 K, 705.2 kPa	0.02231
337.06 K, 505.2 kPa	0.02229
337.25 K, 353.4 kPa	0.02223
337.54 K, 152.2 kPa	0.02207
345.11 K, 1503.9 kPa	0.02418
345.23 K, 1200.4 kPa	0.0239
345.35 K, 897.3 kPa	0.02352
345.47 K, 700 kPa	0.02344
345.57 K, 502.5 kPa	0.02341
345.59 K, 1503.9 kPa	0.02427
345.67 K, 352.7 kPa	0.02338
345.74 K, 1200.4 kPa	0.02399
345.88 K, 154.3 kPa	0.02322
345.9 K, 897.3 kPa	0.02363
346.03 K, 700 kPa	0.0235
346.12 K, 1503.9 kPa	0.0244
346.15 K, 502.5 kPa	0.02351
346.26 K, 352.7 kPa	0.0234
346.29 K, 1200.4 kPa	0.02408
346.49 K, 897.3 kPa	0.02372
346.52 K, 154.3 kPa	0.02324
346.64 K, 700 kPa	0.02364
346.82 K, 502.5 kPa	0.02361
346.93 K, 352.7 kPa	0.0235
347.27 K, 154.3 kPa	0.02327
354.82 K, 2226 kPa	0.02637
355.11 K, 1777.8 kPa	0.02567
355.2 K, 1497.3 kPa	0.02536
355.22 K, 2226 kPa	0.02653
355.33 K, 1194.9 kPa	0.02506
355.47 K, 872.5 kPa	0.02483
355.55 K, 701.6 kPa	0.02472
355.58 K, 1777.8 kPa	0.02592
355.64 K, 504.3 kPa	0.02468
355.66 K, 2226 kPa	0.02632
355.69 K, 1497.3 kPa	0.02553
355.74 K, 356.1 kPa	0.02462
355.82 K, 1194.9 kPa	0.02508
355.89 K, 156.1 kPa	0.02441
355.97 K, 872.5 kPa	0.02489
356.09 K, 1777.8 kPa	0.02597
356.1 K, 701.6 kPa	0.02489
356.2 K, 504.3 kPa	0.02488
356.21 K, 1497.3 kPa	0.02554
356.31 K, 356.1 kPa	0.02481
356.38 K, 1194.9 kPa	0.02516
356.52 K, 156.1 kPa	0.02447
356.57 K, 872.5 kPa	0.02502
356.72 K, 701.6 kPa	0.0249
356.86 K, 504.3 kPa	0.02485
356.98 K, 356.1 kPa	0.02475
357.23 K, 156.1 kPa	0.02456
364.94 K, 2198.1 kPa	0.02782
365.09 K, 1801.9 kPa	0.02689
365.2 K, 1500.1 kPa	0.0265
365.3 K, 1202 kPa	0.02622
365.42 K, 906.2 kPa	0.02606
365.51 K, 697.2 kPa	0.02598
365.51 K, 2198.1 kPa	0.02789
365.59 K, 481.6 kPa	0.026
365.68 K, 346.3 kPa	0.02589
365.7 K, 1801.9 kPa	0.0271
365.81 K, 1500.1 kPa	0.02669
365.86 K, 156.4 kPa	0.02596
365.94 K, 1202 kPa	0.02635
365.99 K, 2198.1 kPa	0.02796
366.1 K, 906.2 kPa	0.02615
366.2 K, 697.2 kPa	0.02609
366.23 K, 1801.9 kPa	0.02723
366.31 K, 481.6 kPa	0.02599
366.35 K, 1500.1 kPa	0.02675
366.42 K, 346.3 kPa	0.02597
366.52 K, 1202 kPa	0.02642
366.66 K, 156.4 kPa	0.02591
366.7 K, 906.2 kPa	0.02622
366.82 K, 697.2 kPa	0.02608
366.96 K, 481.6 kPa	0.02612
367.09 K, 346.3 kPa	0.02604
367.38 K, 156.4 kPa	0.02597
374.95 K, 2704.4 kPa	0.03029
375.17 K, 2197.8 kPa	0.02893
375.29 K, 1766.8 kPa	0.02826
375.36 K, 1499.6 kPa	0.02784
375.46 K, 892.8 kPa	0.02733
375.49 K, 1198.6 kPa	0.02756
375.49 K, 2704.4 kPa	0.03041
375.54 K, 707.6 kPa	0.02738
375.63 K, 507.4 kPa	0.02734
375.72 K, 354 kPa	0.02727
375.76 K, 2197.8 kPa	0.0291
375.9 K, 152.4 kPa	0.02713
375.92 K, 1766.8 kPa	0.02831
375.95 K, 2704.4 kPa	0.03051
375.97 K, 1499.6 kPa	0.02793
376.14 K, 892.8 kPa	0.02756
376.17 K, 1198.6 kPa	0.0277
376.22 K, 707.6 kPa	0.02749
376.28 K, 2197.8 kPa	0.02917
376.35 K, 507.4 kPa	0.02737
376.45 K, 354 kPa	0.02739
376.46 K, 1766.8 kPa	0.02837
376.56 K, 1499.6 kPa	0.02791
376.68 K, 152.4 kPa	0.02726
376.72 K, 892.8 kPa	0.02758
376.75 K, 1198.6 kPa	0.02773
376.81 K, 707.6 kPa	0.02751
376.96 K, 507.4 kPa	0.0274
377.08 K, 354 kPa	0.02742
377.4 K, 152.4 kPa	0.0273
384.94 K, 3297.7 kPa	0.03329
385.16 K, 2700.7 kPa	0.03115
385.35 K, 2197 kPa	0.02995
385.44 K, 3297.7 kPa	0.03354
385.48 K, 1805.7 kPa	0.02946
385.56 K, 1500.6 kPa	0.02919
385.66 K, 1201.3 kPa	0.02897
385.74 K, 2700.7 kPa	0.03126
385.77 K, 899.9 kPa	0.02885
385.93 K, 503.9 kPa	0.02857
385.95 K, 703 kPa	0.0288
385.98 K, 2197 kPa	0.0301
386 K, 3297.7 kPa	0.03358
386.01 K, 355.6 kPa	0.02861
386.13 K, 1805.7 kPa	0.02959
386.2 K, 156.6 kPa	0.02852
386.22 K, 1500.6 kPa	0.02926
386.33 K, 1201.3 kPa	0.02917
386.38 K, 2700.7 kPa	0.03136
386.48 K, 899.9 kPa	0.02895
386.5 K, 2197 kPa	0.03017
386.6 K, 703 kPa	0.02886
386.65 K, 503.9 kPa	0.02873
386.65 K, 1805.7 kPa	0.02964
386.74 K, 1500.6 kPa	0.02936
386.79 K, 355.6 kPa	0.02867
386.93 K, 1201.3 kPa	0.02916
387.03 K, 156.6 kPa	0.02858
387.08 K, 899.9 kPa	0.02903
387.21 K, 703 kPa	0.02901
387.32 K, 503.9 kPa	0.02881
387.44 K, 355.6 kPa	0.02881
387.74 K, 156.6 kPa	0.02859
